Results from patent US20140011277A1, “NOVEL THERAPEUTIC STRATEGIES FOR IMPROVING AN ANTICANCER TREATMENT” (CENTRE NATIONAL DE LA RECHERCHE SCIENTIFIQUE (CNRS), priority 2010, published 2014).

How the values were obtained:
human Patched protein [1] = target: T1, human Patched protein (Homo sapiens, UniProt Q13635); assay: Measurement of the efflux of doxorubicin on xenopus oocytes; assay type: cell-based; design: expressed in transfected cells; host or cells: Xenopus laevis oocytes (RNA injection); conditions: oocytes injected with 10 or 20 ng RNA encoding human Patched protein vs non-injected; 100 μM doxorubicin 16 hrs, supernatant after 90 mins
T1 sequence (Q13635 1-1447): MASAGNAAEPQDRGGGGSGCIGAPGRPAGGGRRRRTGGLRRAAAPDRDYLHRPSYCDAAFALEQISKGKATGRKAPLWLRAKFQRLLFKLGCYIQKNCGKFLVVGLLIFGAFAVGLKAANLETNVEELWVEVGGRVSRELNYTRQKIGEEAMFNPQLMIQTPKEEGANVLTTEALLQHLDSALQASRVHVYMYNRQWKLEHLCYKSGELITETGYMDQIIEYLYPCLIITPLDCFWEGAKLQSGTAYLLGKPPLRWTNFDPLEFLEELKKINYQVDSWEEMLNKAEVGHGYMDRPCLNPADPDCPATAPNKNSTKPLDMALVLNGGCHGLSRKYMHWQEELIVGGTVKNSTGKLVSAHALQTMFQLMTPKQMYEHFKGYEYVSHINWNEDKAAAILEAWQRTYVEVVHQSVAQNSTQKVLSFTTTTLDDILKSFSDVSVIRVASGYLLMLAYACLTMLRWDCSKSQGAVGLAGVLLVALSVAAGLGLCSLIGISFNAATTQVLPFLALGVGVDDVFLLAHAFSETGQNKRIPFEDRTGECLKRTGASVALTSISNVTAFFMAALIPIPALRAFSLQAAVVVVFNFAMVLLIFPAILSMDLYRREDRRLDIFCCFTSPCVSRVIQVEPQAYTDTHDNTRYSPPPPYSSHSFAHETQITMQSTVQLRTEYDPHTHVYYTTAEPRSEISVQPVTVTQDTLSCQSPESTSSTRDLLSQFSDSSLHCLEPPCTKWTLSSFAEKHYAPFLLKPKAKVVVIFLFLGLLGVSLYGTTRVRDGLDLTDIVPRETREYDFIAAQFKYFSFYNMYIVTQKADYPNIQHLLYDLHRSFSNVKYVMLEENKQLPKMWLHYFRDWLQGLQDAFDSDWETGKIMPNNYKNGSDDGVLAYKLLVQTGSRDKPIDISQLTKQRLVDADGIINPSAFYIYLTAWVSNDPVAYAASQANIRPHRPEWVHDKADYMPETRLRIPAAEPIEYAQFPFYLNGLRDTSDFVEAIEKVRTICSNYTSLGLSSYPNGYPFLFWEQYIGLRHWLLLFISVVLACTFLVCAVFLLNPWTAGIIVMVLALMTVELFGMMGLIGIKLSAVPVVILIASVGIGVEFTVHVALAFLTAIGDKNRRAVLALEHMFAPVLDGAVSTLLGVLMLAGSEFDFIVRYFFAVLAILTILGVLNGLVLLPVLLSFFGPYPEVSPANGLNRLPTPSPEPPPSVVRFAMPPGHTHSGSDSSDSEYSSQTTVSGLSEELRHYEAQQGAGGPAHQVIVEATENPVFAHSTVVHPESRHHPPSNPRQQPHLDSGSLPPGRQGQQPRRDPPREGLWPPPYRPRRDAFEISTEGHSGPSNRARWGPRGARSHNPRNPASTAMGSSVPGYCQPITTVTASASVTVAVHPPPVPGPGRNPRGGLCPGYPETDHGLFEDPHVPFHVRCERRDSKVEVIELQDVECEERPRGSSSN
Procedure: The oocytes are collected by surgery on an Xenopus laevis female anaesthetized with 0.2% of MS222 (tricaine methanesulfonate) in accordance with the procedures recommended by the ethics committee. The oocytes are washed with an MBS saline solution, pH 7.4 (NaCl 85 mM, KCl 1 mM, NaHCO32,4 mM, MgSO40.82 mM, Ca(NO3)20.33 mM, CaCl2 0.41 mM, HEPES 10 mM, NaOH 4.5 mM) supplemented with 50 U/ml of penicillin and 50 μg/ml of streptomycin. The oocytes are then defolliculated by incubation for 16 hrs at 19° C. with 1.8 mg/ml of collagenase then 30 mins with MBS without calcium, and placed in MBS. 50 nL containing 10 or 20 ng of RNA encoding human Patched protein are injected per oocyte. The oocytes are incubated for 3 days at 19° C. in MBS. 4 lots of 10 control oocytes (not injected) and oocytes injected with RNA encoding human Patched protein were incubated for 16 hrs at 19° C. with 100 μM of doxorubicin. After rinsing, the oocytes are placed in MBS. The supernatant is sampled after 90 mins and the doxorubicin fluorescence present in the sample is measured by fluorescence (λex=490+/−10 nm, λem=610+/−10 nm).
The experiments being carried out on 4 lots of 10 control oocytes (non-injected) and oocytes injected with RNAs encoding human Patched protein, the average of the values obtained for the 4 lots is shown.

[2] = tested on: yeasts expressing human Patched protein; assay: Resistance of yeasts to doxorubicin (growth, OD at 600 nm over time); assay type: cell-based, S. cerevisiae; conditions: 10 μg/mL doxorubicin in rich medium, 18° C.; yeasts expressing human Patched protein vs K699 control yeasts
Procedure: Yeasts not expressing human Patched protein (controls) K699 and yeasts expressing human Patched protein were cultured at 18° C. in normal rich medium and in rich medium with 10 μg of added doxorubicin per mL of medium.
The OD of the yeasts at 600 nm is measured over time.

human Patched protein [3] = target: T1, human Patched protein; assay: Binding of doxorubicin to Patched protein (quenching of doxorubicin fluorescence on yeast membrane preparations); conditions: 50 nM doxorubicin added to 30 μg of membranes; Patched-containing vs K699 control membranes
Procedure: 50 nM of doxorubicin are added to 30 μg of membranes and the doxorubicin fluorescence is measured as a function of time.

human Patched protein [4] = target: T1, human Patched protein; assay: Measurement of the efflux of doxorubicin on yeasts; assay type: cell-based; design: expressed in transfected cells; host or cells: Xenopus laevis oocytes (RNA injection); conditions: yeasts loaded 2 hours with 10 μM doxorubicin, supernatant after 20 mins; Patched-expressing vs K699 control
Procedure: After a centrifugation (5 mins at 6800 g) to remove all cell fragments, the reading of the doxorubicin fluorescence (λex=490+/−10 nm, λem=610+/−10 nm) was carried out on 200 μL of supernatant in a plate reader (FLUOstar, Labtech). • on yeasts: K699 control yeasts and yeasts expressing human Patched protein were cultured at 18° C. up to an OD600 of 7 on a rich medium with 2% of added D-glucose.
The cells are then centrifuged, (5 mins. 3000 g), washed 4 times with water and finally resuspended carefully to an OD600 of 10 in 50 mM NaOH-Hepes buffer (pH 7.0) and incubated for 2 hours with 10 μM of doxorubicin.
After rinsing, the yeasts are resuspended in 50 mM NaOH-Hepes buffer (pH 7.0).
After 20 mins, the yeasts are centrifuged and doxorubicin contained in the supernatant is measured by fluorescence (λex=490+/−10 nm, λem=610+/−10 nm). • On xenopus oocytes: obtaining and preparing the oocytes

Structure (SMILES): COc1cccc2c1C(=O)c1c(O)c3c(c(O)c1C2=O)C[C@@](O)(C(=O)CO)C[C@@H]3O[C@H]1C[C@H](N)[C@H](O)[C@H](C)O1 [doxorubicin]
- efflux of doxorubicin (fluorescence of supernatant) (human Patched protein [1]): increase in the efflux of doxorubicin
- resistance of yeasts to doxorubicin [2]: yeasts expressing human Patched protein resist better than the control yeasts
- quenching of doxorubicin fluorescence (binding to Patched protein) (human Patched protein [3]): rapid and significant quenching of the doxorubicin fluorescence
- efflux of doxorubicin (fluorescence of supernatant) (human Patched protein [4]): increase in the efflux of doxorubicin
